In PubChem BioAssay AID2060895 (Molecular Pharmacology Branch, DTP, NCI, 2025):

Test system: PDC 899932-113-R3-J6 complex spheroid viability
Assay: Anticancer human tumor 899932-113-R3-J6-PDC patient-derived melanoma cell line growth inhibition [RAS]
Settings: for IC50: curve of first compound; for viability, T/C: stronger effect = lower value
Outline: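 Agents were tested in combination matrices in half-log decrements from a top concentration at or near clinical Cmax (10 microM if undetermined). Targets were multi-cell spheroids of tumour lines plus HUVEC and MSC stromal cells.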
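For viability, T/C in this document: spheroids exposed to agents for seven days before readout; 100% = DMSO vehicle control wells.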

Molecule `CC1(C)CCC(Nc2ncc(C(F)(F)F)c(-c3c[nH]c4c(P(C)(C)=O)c(C#N)ccc34)n2)CN1` (stereo unspecified) + C=CC(=O)N1CCN(c2nc(OCC3CCCN3C)nc3c(F)c(-c4nc(N)cc(C)c4C(F)(F)F)c(Cl)cc23)C(C)C1 has an IC50 (second compound 0.00316 µM) of 8.77 nM, an IC50 (second compound 0.01 µM) of 9.74 nM and an IC50 (second compound 0.0316 µM) of 11 nM. It also gave an IC50 (second compound 0.1 µM) of 8.56 nM, an IC50 (second compound 0.316 µM) of 9.45 nM and an IC50 (second compound 1 µM) of 8.03 nM. The viability, T/C (second compound 0.00316 µM, first compound 0.000949 µM) was 105%, the viability, T/C (second compound 0.00316 µM, first compound 0.003 µM) was 73% and the viability, T/C (second compound 0.00316 µM, first compound 0.00949 µM) was 51.5%. For the same molecule, the viability, T/C (second compound 0.00316 µM, first compound 0.03 µM) was 25.9%, the viability, T/C (second compound 0.00316 µM, first compound 0.0949 µM) was 16.4% and the viability, T/C (second compound 0.00316 µM, first compound 0.3 µM) was 8.68%. It also gave a viability, T/C (second compound 0.01 µM, first compound 0.000949 µM) of 96.8%, a viability, T/C (second compound 0.01 µM, first compound 0.003 µM) of 79.2% and a viability, T/C (second compound 0.01 µM, first compound 0.00949 µM) of 48%. The viability, T/C (second compound 0.01 µM, first compound 0.03 µM) was 30.5%, the viability, T/C (second compound 0.01 µM, first compound 0.0949 µM) was 16.4% and the viability, T/C (second compound 0.01 µM, first compound 0.3 µM) was 11.2%. For the same molecule, the viability, T/C (second compound 0.0316 µM, first compound 0.000949 µM) was 102%, the viability, T/C (second compound 0.0316 µM, first compound 0.003 µM) was 75.3% and the viability, T/C (second compound 0.0316 µM, first compound 0.00949 µM) was 56.3%. For the same molecule, the viability, T/C (second compound 0.0316 µM, first compound 0.03 µM) was 29.9%, the viability, T/C (second compound 0.0316 µM, first compound 0.0949 µM) was 15.4% and the viability, T/C (second compound 0.0316 µM, first compound 0.3 µM) was 8.82%. For the same molecule, the viability, T/C (second compound 0.1 µM, first compound 0.000949 µM) was 94.8%, the viability, T/C (second compound 0.1 µM, first compound 0.003 µM) was 68% and the viability, T/C (second compound 0.1 µM, first compound 0.00949 µM) was 51.4%. The viability, T/C (second compound 0.1 µM, first compound 0.03 µM) was 28.1%, the viability, T/C (second compound 0.1 µM, first compound 0.0949 µM) was 16.4% and the viability, T/C (second compound 0.1 µM, first compound 0.3 µM) was 8.6%. The viability, T/C (second compound 0.316 µM, first compound 0.000949 µM) was 107%, the viability, T/C (second compound 0.316 µM, first compound 0.003 µM) was 73.9% and the viability, T/C (second compound 0.316 µM, first compound 0.00949 µM) was 52.9%. It also gave a viability, T/C (second compound 0.316 µM, first compound 0.03 µM) of 30.4%, a viability, T/C (second compound 0.316 µM, first compound 0.0949 µM) of 12.2% and a viability, T/C (second compound 0.316 µM, first compound 0.3 µM) of 9.67%. It also gave a viability, T/C (second compound 1 µM, first compound 0.000949 µM) of 95.1%, a viability, T/C (second compound 1 µM, first compound 0.003 µM) of 71.7% and a viability, T/C (second compound 1 µM, first compound 0.00949 µM) of 47.4%. The viability, T/C (second compound 1 µM, first compound 0.03 µM) was 25.7%, the viability, T/C (second compound 1 µM, first compound 0.0949 µM) was 10.5% and the viability, T/C (second compound 1 µM, first compound 0.3 µM) was 10.9%.
Work on `CCN1CCN(Cc2ccc(Nc3ncc(F)c(-c4cc(F)c5nc(C)n(C(C)C)c5c4)n3)nc2)CC1` + C#Cc1c(F)ccc2cc(O)cc(-c3ncc4c(N5CC6CCC(C5)N6)nc(OCC56CCCN5CC(F)C6)nc4c3F)c12 yielded an IC50 (second compound 0.0316 µM) of 502 nM, an IC50 (second compound 0.1 µM) of 526 nM and an IC50 (second compound 0.316 µM) of 524 nM. The IC50 (second compound 1 µM) was 490 nM, the IC50 (second compound 3.16 µM) was 526 nM and the IC50 (second compound 10 µM) was 310 nM. The viability, T/C (second compound 0.0316 µM, first compound 0.00316 µM) was 105%, the viability, T/C (second compound 0.0316 µM, first compound 0.01 µM) was 97.1% and the viability, T/C (second compound 0.0316 µM, first compound 0.0316 µM) was 98.9%. For the same molecule, the viability, T/C (second compound 0.0316 µM, first compound 0.1 µM) was 83.4%, the viability, T/C (second compound 0.0316 µM, first compound 0.316 µM) was 69.8% and the viability, T/C (second compound 0.0316 µM, first compound 1 µM) was 23.9%. For the same molecule, the viability, T/C (second compound 0.1 µM, first compound 0.00316 µM) was 109%, the viability, T/C (second compound 0.1 µM, first compound 0.01 µM) was 102% and the viability, T/C (second compound 0.1 µM, first compound 0.0316 µM) was 92.9%. For the same molecule, the viability, T/C (second compound 0.1 µM, first compound 0.1 µM) was 87%, the viability, T/C (second compound 0.1 µM, first compound 0.316 µM) was 68.9% and the viability, T/C (second compound 0.1 µM, first compound 1 µM) was 28.3%. The viability, T/C (second compound 0.316 µM, first compound 0.00316 µM) was 116%, the viability, T/C (second compound 0.316 µM, first compound 0.01 µM) was 92.8% and the viability, T/C (second compound 0.316 µM, first compound 0.0316 µM) was 94%. It also gave a viability, T/C (second compound 0.316 µM, first compound 0.1 µM) of 92.7%, a viability, T/C (second compound 0.316 µM, first compound 0.316 µM) of 69% and a viability, T/C (second compound 0.316 µM, first compound 1 µM) of 26.5%. The viability, T/C (second compound 1 µM, first compound 0.00316 µM) was 115%, the viability, T/C (second compound 1 µM, first compound 0.01 µM) was 112% and the viability, T/C (second compound 1 µM, first compound 0.0316 µM) was 98.7%. For the same molecule, the viability, T/C (second compound 1 µM, first compound 0.1 µM) was 81.6%, the viability, T/C (second compound 1 µM, first compound 0.316 µM) was 67.1% and the viability, T/C (second compound 1 µM, first compound 1 µM) was 27.8%. It also gave a viability, T/C (second compound 3.16 µM, first compound 0.00316 µM) of 126%, a viability, T/C (second compound 3.16 µM, first compound 0.01 µM) of 112% and a viability, T/C (second compound 3.16 µM, first compound 0.0316 µM) of 100%. The viability, T/C (second compound 3.16 µM, first compound 0.1 µM) was 86.2%, the viability, T/C (second compound 3.16 µM, first compound 0.316 µM) was 71.4% and the viability, T/C (second compound 3.16 µM, first compound 1 µM) was 28.5%. It also gave a viability, T/C (second compound 10 µM, first compound 0.00316 µM) of 125%, a viability, T/C (second compound 10 µM, first compound 0.01 µM) of 113% and a viability, T/C (second compound 10 µM, first compound 0.0316 µM) of 100%. The viability, T/C (second compound 10 µM, first compound 0.1 µM) was 84.4%, the viability, T/C (second compound 10 µM, first compound 0.316 µM) was 48.4% and the viability, T/C (second compound 10 µM, first compound 1 µM) was 3.09%.
Work on `CC(C)n1nc(-c2ccc3oc(N)nc3c2)c2c(N)ncnc21` + CCn1c(-c2cccnc2C(C)OC)c2c3cc(ccc31)N1CCOC(CC(NC(=O)C(C(C)C)N(C)C(=O)C3(F)CCN(C(=O)C#CC(C)(C)N(C)C)CC3)C(=O)N3CCCC(N3)C(=O)OCC(C)(C)C2)C1 yielded an IC50 (second compound 0.000949 µM) greater than 100 nM, an IC50 (second compound 0.003 µM) greater than 100 nM and an IC50 (second compound 0.00949 µM) greater than 100 nM. The IC50 (second compound 0.03 µM) was greater than 100 nM, the IC50 (second compound 0.0949 µM) was greater than 100 nM and the IC50 (second compound 0.3 µM) was greater than 100 nM. The viability, T/C (second compound 0.000949 µM, first compound 0.000316 µM) was 107%, the viability, T/C (second compound 0.000949 µM, first compound 0.001 µM) was 97.1% and the viability, T/C (second compound 0.000949 µM, first compound 0.00316 µM) was 101%. For the same molecule, the viability, T/C (second compound 0.000949 µM, first compound 0.01 µM) was 85%, the viability, T/C (second compound 0.000949 µM, first compound 0.0316 µM) was 60.3% and the viability, T/C (second compound 0.000949 µM, first compound 0.1 µM) was 100%. The viability, T/C (second compound 0.003 µM, first compound 0.000316 µM) was 92.3%, the viability, T/C (second compound 0.003 µM, first compound 0.001 µM) was 107% and the viability, T/C (second compound 0.003 µM, first compound 0.00316 µM) was 96.7%. It also gave a viability, T/C (second compound 0.003 µM, first compound 0.01 µM) of 82%, a viability, T/C (second compound 0.003 µM, first compound 0.0316 µM) of 65% and a viability, T/C (second compound 0.003 µM, first compound 0.1 µM) of 102%. For the same molecule, the viability, T/C (second compound 0.00949 µM, first compound 0.000316 µM) was 105%, the viability, T/C (second compound 0.00949 µM, first compound 0.001 µM) was 100% and the viability, T/C (second compound 0.00949 µM, first compound 0.00316 µM) was 92.5%. The viability, T/C (second compound 0.00949 µM, first compound 0.01 µM) was 85.6%, the viability, T/C (second compound 0.00949 µM, first compound 0.0316 µM) was 65.5% and the viability, T/C (second compound 0.00949 µM, first compound 0.1 µM) was 100%. The viability, T/C (second compound 0.03 µM, first compound 0.000316 µM) was 104%, the viability, T/C (second compound 0.03 µM, first compound 0.001 µM) was 98.5% and the viability, T/C (second compound 0.03 µM, first compound 0.00316 µM) was 89.3%. For the same molecule, the viability, T/C (second compound 0.03 µM, first compound 0.01 µM) was 86.1%, the viability, T/C (second compound 0.03 µM, first compound 0.0316 µM) was 61% and the viability, T/C (second compound 0.03 µM, first compound 0.1 µM) was 94.3%. For the same molecule, the viability, T/C (second compound 0.0949 µM, first compound 0.000316 µM) was 95.2%, the viability, T/C (second compound 0.0949 µM, first compound 0.001 µM) was 93.5% and the viability, T/C (second compound 0.0949 µM, first compound 0.00316 µM) was 91.3%. It also gave a viability, T/C (second compound 0.0949 µM, first compound 0.01 µM) of 76.7%, a viability, T/C (second compound 0.0949 µM, first compound 0.0316 µM) of 61.1% and a viability, T/C (second compound 0.0949 µM, first compound 0.1 µM) of 93.1%. The viability, T/C (second compound 0.3 µM, first compound 0.000316 µM) was 86.7%, the viability, T/C (second compound 0.3 µM, first compound 0.001 µM) was 80.1% and the viability, T/C (second compound 0.3 µM, first compound 0.00316 µM) was 75.6%. It also gave a viability, T/C (second compound 0.3 µM, first compound 0.01 µM) of 57.9%, a viability, T/C (second compound 0.3 µM, first compound 0.0316 µM) of 51.2% and a viability, T/C (second compound 0.3 µM, first compound 0.1 µM) of 92.9%.
